Experimental data as given in patent US4533664A, “Antithrombotic N-(6-chloro-pyrazin-2-yl)-4-Hydroxy-2H-1,2-benzothiazine-3-carboxamide-1 ,1-dioxide derivatives, composition, and method of use” (Dr. Karl Thomae Gesellschaft mit beschrankter Haftung, priority 1982, dated 1985).
Structures can show the parent of a compound that is named as a salt. Where two headings read alike, the source gives them in different places.

Experiments:
[1] = tested on: collagen-induced aggregation (platelet-rich plasma); experiment: Born test, rat ex vivo, collagen-induced aggregation; assay type: in vivo; conditions: 1 hour after administration, optical density
Method: (b) Born test, rat ex vivo, collagen-induced aggregation
The following forms were tested:
The test compound was administered by esophageal tube in the form of an aqueous solution or, in the case of compound A in the form of a tylose suspension, to conscious rats weighing about 450 g. After 1 hour, blood was taken from the abdominal aorta of the animals (which had previously been anesthetized with pentobarbital sodium). The platelet-rich plasma obtained by centrifuging was pooled. The controls were three animals which had not been given any of the test compound. The method of taking blood and preparing the plasma was the same for both groups. The anticoagulant used was 2% sodium citrate in a volume ratio of 1+9.
All the testing was carried out one hour after the administration of the test compound.

[2] = tested on: collagen-induced thrombocyte aggregation; experiment: Born test, collagen-induced aggregation (platelet-rich plasma); assay type: cell-based, human (healthy test subjects); conditions: for inhibition at 10 µM: 10^-5 Mol/l; for inhibition at 1 µM: 10^-6 Mol/l
Method: The compounds were tested for their inhibiting effects in blood platelet aggregation induced by collagen and their effect of prolonging the bleeding time in mice. The compounds were also tested for their acute toxicity.
(a) Born test, collagen-induced aggregation
The thrombocyte aggregation was measured on platelet-rich plasma from healthy test subjects using the method of BORN and CROSS (J. Physiol. 170, 397 [1964]). The decrease in optical density of the platelet suspensions after the addition of collagen was measured photometrically and recorded. The rate of aggregation was deduced from the angle of inclination of the density curve. The point on the curve at which there is maximum light transmittance was used to calculate the "optical density". The quantity of collagen was selected so as to obtain an irreversible control curve.
The figures given refer to the optical density and indicate the percentage change in light transmittance (=% attenuation of aggregation) under the effect of the test substance, compared with the control.
Standard commercial collagen made by Hormon-Chemie of Munich was used.

[3] = Determination of acute toxicity; assay type: in vivo; conditions: mouse, in vivo; oral, mice; printed ">>1000 mg/kg"
Method: (§1) (d) Determination of acute toxicity
(§2) The acute toxicity was determined after oral administration to male and female mice. The compounds were administered as a suspension in tylose.
(§3) The following table indicates the number of animals which died within 1, 7 and 14 days after receiving the doses stated: […]

mice = experiment: Determination of acute toxicity; assay type: in vivo
Method: as §1, §2, §3

rat = experiment: edema test (antiphlogistic effect); assay type: in vivo; conditions: for powerful antiphlogistic effect, dose range: p.o. in the rat (edema test)
stomach of the rat = experiment: ulcerogenic effect on the stomach of the rat; assay type: in vivo
bleeding time in mice = experiment: Determination of the bleeding time in mice (method of DUKE); assay type: in vivo, mouse (NMRI Biberach)
Method: (c) Determination of the bleeding time in mice
The bleeding time was measured on unanesthetized female mice weighing from 20 to 25 g by the method of DUKE (J. Amer. Med. Assoc.) 15, 1187, 1910). About 0.5 mm of the tip of the animals' tail was cut off, and the blood escaping was carefully wiped away with a strip of filter paper at 30 second intervals. The number of drops of blood thus obtained provided a measurement of the bleeding time. The normal bleeding time in mice is 4.1 minutes on average.
Strain of animals: NMRI Biberach
Number of animals per test: 5
The test compound was administered by esophageal tube one hour before the measurement.

[4] = Homo sapiens, optical density, read-out: BORN test [= % reduction in aggregation]
[5] = Homo sapiens, Table I, read-out: IC50 (50% reduction in aggregation)
[6] = 250 mg/kg oral, of 10 animals (A) or 5 animals (B, Y, Z)
[7] = 1000 mg/kg oral, of 10 animals (A) or 5 animals (B)
[8] = Homo sapiens, as stated in text on Table I, read-out: concentration giving a 50% reduction in aggregation

CN1C(C(=O)Nc2cncc(Cl)n2)=C(O)c2ccccc2S1(=O)=O [C, Sodium salt of N-(6-chloro-pyrazin-2-yl)-4-hydroxy-2-methyl-2H-1,2-benzothiazine-3-carboxamide-1,1-dioxide]
percentage inhibition of aggregation ([1]; 0.0125 mg/kg p.o.): 0%
percentage inhibition of aggregation ([1]; 0.025 mg/kg p.o.): 32%
percentage inhibition of aggregation ([1]; 0.05 mg/kg p.o.): 96%
percentage inhibition of aggregation ([1]; 0.125 mg/kg p.o.): 100%
percentage inhibition of aggregation ([1]; 0.25 mg/kg p.o.): 100%
percentage inhibition of aggregation ([1]; 0.5 mg/kg p.o.): 100%

CN1C(C(=O)Nc2cncc(Cl)n2)=C(O)c2ccccc2S1(=O)=O [Compound A, N-(6-Chloro-pyrazin-2-yl)-4-hydroxy-2-methyl-2H-1,2-benzothiazine-3-carboxamide-1,1-dioxide]
inhibition at 10 µM [2, 4]: 95%
inhibition at 1 µM [2, 4]: 71%
inhibition at 0.1 µM ([2]; Homo sapiens, 10^-7 Mol/l, optical density, read-out: BORN test [= % reduction in aggregation]): 6%
IC50 [2, 5]: 470 nM
concentration leading to a 50% reduction compared with prior art compounds Y and Z ([2]; comparison with Y and Z): about one tenth power lower
LD50 at 336 h [3]: > 1000 mg/kg
Animals which died during the observation period, 1 day (mice; [6]): 0
Animals which died during the observation period, 7 days (mice; [6]): 0
Animals which died during the observation period, 14 days (mice; [6]): 0
Animals which died during the observation period, 1 day (mice; [7]): 0
Animals which died during the observation period, 7 days (mice; [7]): 0
Animals which died during the observation period, 14 days (mice; [7]): 0
ED35 (rat; Rattus norvegicus, po, edema test): > 200 mg/kg
antiphlogistic effect (rat; edema test): no antiphlogistic effect
ulcerogenic effect (stomach of the rat): no ulcerogenic effect up to 100 mg/kg
percentage inhibition of aggregation ([1]; 0.125 mg/kg p.o.): 14%
inhibition at 0.25 mg/kg ([1]; Rattus norvegicus, po, 1 h, 0.25 mg/kg p.o., read-out: percentage inhibition of aggregation): 93%
inhibition at 0.5 mg/kg ([1]; Rattus norvegicus, po, 1 h, 0.5 mg/kg p.o., read-out: percentage inhibition of aggregation): 86%

CN1C(C(=O)Nc2cncc(Cl)n2)=C(O)c2ccccc2S1(=O)=O [Compound B, Potassium salt of N-(6-chloro-pyrazin-2-yl)-4-hydroxy-2-methyl-2H-1,2-benzothiazine-3-carboxamide-1,1-dioxide]
Animals which died during the observation period, 1 day (mice; [6]): 0
Animals which died during the observation period, 7 days (mice; [6]): 0
Animals which died during the observation period, 14 days (mice; [6]): 0
Animals which died during the observation period, 1 day (mice; [7]): 0
Animals which died during the observation period, 7 days (mice; [7]): 1
Animals which died during the observation period, 14 days (mice; [7]): 1
percentage inhibition of aggregation ([1]; 0.0125 mg/kg p.o.): 26%
percentage inhibition of aggregation ([1]; 0.025 mg/kg p.o.): 86%
percentage inhibition of aggregation ([1]; 0.05 mg/kg p.o.): 100%

CN1C(C(=O)Nc2cncc(Cl)n2)=C(O)c2ccccc2S1(=O)=O [D, Tetramethylammonium salt of N-(6-chloro-pyrazin-2-yl)-4-hydroxy-2-methyl-2H-1,2-benzothiazine-3-carboxamide-1,1-dioxide]
percentage inhibition of aggregation ([1]; 0.0125 mg/kg p.o.): 27%
percentage inhibition of aggregation ([1]; 0.025 mg/kg p.o.): 20%
percentage inhibition of aggregation ([1]; 0.05 mg/kg p.o.): 97%

CN1C(C(=O)Nc2cncc(Cl)n2)=C(O)c2ccccc2S1(=O)=O [E, Ethanolamine salt of N-(6-chloropyrazin-2-yl)-4-hydroxy-2-methyl-2H-1,2-benzothiazine-3-carboxamide-1,1-dioxide]
percentage inhibition of aggregation ([1]; 0.0125 mg/kg p.o.): 10%
percentage inhibition of aggregation ([1]; 0.025 mg/kg p.o.): 53%
percentage inhibition of aggregation ([1]; 0.05 mg/kg p.o.): 87%

CN1C(C(=O)Nc2cncc(Cl)n2)=C(O)c2ccccc2S1(=O)=O [F, Calcium salt of N-(6-chloro-pyrazin-2-yl)-4-hydroxy-2-methyl-2H-1,2-benzothiazine-3-carboxamide-1,1-dioxide]
percentage inhibition of aggregation ([1]; 0.0125 mg/kg p.o.): 27%
percentage inhibition of aggregation ([1]; 0.025 mg/kg p.o.): 64%
percentage inhibition of aggregation ([1]; 0.05 mg/kg p.o.): 77%

CN1C(C(=O)Nc2cncc(Cl)n2)=C(O)c2ccccc2S1(=O)=O [G, Ammonium salt of N-(6-chloro-pyrazin-2-yl)-4-hydroxy-2-methyl-2H-1,2-benzothiazine-3-carboxamide-1,1-dioxide]
percentage inhibition of aggregation ([1]; 0.0125 mg/kg p.o.): 7%
percentage inhibition of aggregation ([1]; 0.025 mg/kg p.o.): 36%
percentage inhibition of aggregation ([1]; 0.05 mg/kg p.o.): 92%

CN1C(C(=O)Nc2ccccn2)=C(O)c2ccccc2S1(=O)=O [Y, 4-hydroxy-2-methyl-N-(2-pyridyl)-2H-1,2-benzothiazine-3-carboxamide-1,1-dioxide]
inhibition at 10 µM [2, 4]: 85%
inhibition at 1 µM [2, 4]: 39%
IC50 [2, 5]: 2000 nM
IC50 [2, 8]: 2000 nM
Animals which died during the observation period, 1 day (mice; [6]): 0
Animals which died during the observation period, 7 days (mice; [6]): 3
Animals which died during the observation period, 14 days (mice; [6]): 3
powerful antiphlogistic effect, dose range (rat): 1 to 5 mg/kg
ulcerogenic effect (stomach of the rat): strong ulcerogenic effect
side effects (bleeding time in mice; 10 mg/kg): already show side effects

CN1C(C(=O)Nc2cnccn2)=C(O)c2ccccc2S1(=O)=O [Z, 4-hydroxy-2-methyl-N-(2-pyrazinyl)-2H-1,2-benzothiazine-3-carboxamide-1,1-dioxide]
inhibition at 10 µM [2, 4]: 15%
IC50 [2, 5]: > 10000 nM
IC50 [2, 8]: > 10000 nM
Animals which died during the observation period, 1 day (mice; [6]): 1
Animals which died during the observation period, 7 days (mice; [6]): 4
Animals which died during the observation period, 14 days (mice; [6]): 4
powerful antiphlogistic effect, dose range (rat): 1 to 5 mg/kg
ulcerogenic effect (stomach of the rat): strong ulcerogenic effect
Prolongation of bleeding time (bleeding time in mice; 10 mg/kg by esophageal tube, one hour before the measurement): +62%
